This note sets out measurements from patent US9771330B2, “Pyrimidine compounds for the treatment of cancer” (The University of North Carolina at Chapel Hill, priority 2012, dated 2017).

pIC50: −log10 of the molar value. Where only a bound is given, the exact number is not on record here.

In the experiment the target is T1, Mer (Homo sapiens, UniProt Q12866).
T1 sequence (Q12866 21-999): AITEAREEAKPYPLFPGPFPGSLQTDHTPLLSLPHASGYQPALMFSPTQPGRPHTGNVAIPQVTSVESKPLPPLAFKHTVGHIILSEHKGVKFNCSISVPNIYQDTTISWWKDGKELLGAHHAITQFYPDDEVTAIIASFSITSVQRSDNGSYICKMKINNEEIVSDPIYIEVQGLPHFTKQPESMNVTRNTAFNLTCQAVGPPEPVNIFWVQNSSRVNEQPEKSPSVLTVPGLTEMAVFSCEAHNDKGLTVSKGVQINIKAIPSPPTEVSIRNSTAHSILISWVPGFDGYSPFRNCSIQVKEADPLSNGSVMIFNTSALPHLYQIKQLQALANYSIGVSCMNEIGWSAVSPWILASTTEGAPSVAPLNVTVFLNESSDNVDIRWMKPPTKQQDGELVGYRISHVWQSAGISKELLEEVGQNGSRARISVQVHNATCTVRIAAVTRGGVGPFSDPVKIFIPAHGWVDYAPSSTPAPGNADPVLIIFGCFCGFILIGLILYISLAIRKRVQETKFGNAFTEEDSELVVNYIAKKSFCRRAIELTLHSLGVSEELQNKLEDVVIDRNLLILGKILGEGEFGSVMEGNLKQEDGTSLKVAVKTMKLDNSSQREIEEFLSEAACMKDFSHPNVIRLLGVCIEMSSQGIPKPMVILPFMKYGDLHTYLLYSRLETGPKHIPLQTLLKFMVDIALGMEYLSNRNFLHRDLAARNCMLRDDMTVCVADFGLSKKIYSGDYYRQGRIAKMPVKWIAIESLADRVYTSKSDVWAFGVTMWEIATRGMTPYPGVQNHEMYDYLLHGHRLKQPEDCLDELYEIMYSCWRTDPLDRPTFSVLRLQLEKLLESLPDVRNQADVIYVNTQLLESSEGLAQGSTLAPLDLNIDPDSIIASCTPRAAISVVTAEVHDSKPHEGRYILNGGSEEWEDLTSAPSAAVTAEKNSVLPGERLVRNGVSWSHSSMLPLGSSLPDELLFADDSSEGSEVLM
Kind of experiment: Mer IC50. To be noted: Table 2, compounds of General Procedure E. It is filed as biochemical.

For orientation: pIC50 means the negative decadic logarithm of the IC50, by convention in mol/L. High values mean a low IC50, low ones a high IC50. For the compound `N[C@H]1CCCCNc2nc(ncc2C(=O)NCC2CCOCC2)NCCCCCCNC1=O` [UNC2705A], the pIC50 was over 8.00.
